Measurements: patent US20200246493A1, “DRUG-IODINATED OIL DISPERSION, METHOD FOR PREPARING SAME AND ITS APPLICATION IN EMBOLIZATION TREATMENT FOR LIVER CANCER” (Xiamen University, priority 2019, published 2020)

Conditions: fluorescence intensity over time

fluorescence half-life: about three
Compound: CC1(C)C(/C=C/C=C/C=C/C=C2\N(CCCCS(=O)(=O)O)c3ccc4ccccc4c3C2(C)C)=[N+](CCCCS(=O)(=O)[O-])c2ccc3ccccc3c21 [ICG, indocyanine green]
